The numbers were not newly measured in patent publication US20250295562A1, “Formulation for treatment of melasma, hyperpigmentation, and dark spots” (priority 2024, published 2025), which cites them from elsewhere.

SMILES strings stand for the structures.

For data set [1] the following is noted: clinical.
Data set [2] concerns bacteria.
The test system of data set [3] is collagenase.

Take `CCCCC/C=C\C/C=C\CCCCCCCC(=O)OCC` [Ethyl Linoleate, Ethyl linoleate]: in data set [1], the anti-acne effect entry is “effective anti-acne agent”.

For the compound `COc1cc(O)c(CC=C(C)C)c(O)c1C(=O)/C=C/c1ccc(O)cc1` [xanthohumol], the bactericidal activity result in data set [2] is recorded as “exhibited bactericidal activity”. In data set [3], the anticollagenase inhibitory activity result is on record as “moderate to strong”.

For the compound `CC(C)=CCC1=C(O)C(C(=O)CC(C)C)=C(O)C(CC=C(C)C)(CC=C(C)C)C1=O` [lupulone], the bactericidal activity result in data set [2] was “exhibited bactericidal activity”. Also, the anticollagenase inhibitory activity result in data set [3] is reported as “moderate to strong”.
